# Assay results as given in US20230416653A1, “ANTIMICROBIAL CLEANING COMPOSITIONS CONTAINING POLYURETHANE SALTED WITH BIS-BIGUANIDE FREE BASE” (Lubrizol Advanced Materials, Inc., priority 2020, published 2023).
# Tested on: Aspergillus brasiliensis
# Assay: Antimicrobial activity on ceramic tiles, visual evaluation of fungal growth
# Format: cell-based
# Settings: 10 = full fungal growth coverage, 0 = complete absence of fungal growth; tiles rinsed with 0.1 wt. % SLS; incubated 7 days at 25° C.
# Description: A 2 wt. % aqueous dispersion of Polymer 1 salted with 2 wt. % chlorhexidine free base was assayed for antimicrobial activity on ceramic tiles. Control formulations containing Polymer 2 (no acid groups) 2 wt. % aqueous dispersion combined with 2 wt. % chlorhexidine gluconate, chlorhexidine (1 wt. % active material in sterilized deionized water) and benzalkonium chloride (1 wt. % active material in sterilized deionized water) were prepared for comparison. The tiles (Homebase Gloss Mini-Metro wall tiles measuring 7.5 cm×15 cm×0.6 cm thick) were sprayed with the dispersion of the salted Polymer 1 and the control formulations. The treated tiles were dried overnight in a biological control cabinet (Nuaire model no. NU 4005) at 20° C. and 45% RH. The dried tiles were removed from the biological control cabinet and each tile was rinsed with 400 ml of a sterile solution of 0.1 wt. % sodium laurel sulfate in deionized water. A spore suspension of Aspergillus brasiliensis cultured on malt extract agar was prepared in sterilized deionized water (concentration: 1×10^8 cfu/ml) and applied to each tile with a handheld spray bottle (nozzle set on spray position). The treated tiles were placed in the biological cabinet at 20° C. and 45% RH and dried for 30 mins. […] After incubating for 7 days the tiles were removed and visually evaluated for fugal growth.
row,Compound,Fungal Coverage Rating (average of 10 treated tiles)
1,"N=C(NCCCCCCNC(=N)NC(=N)Nc1ccc(Cl)cc1)NC(=N)Nc1ccc(Cl)cc1 [Control (chlorhexidine), chlorhexidine]",5
2,benzalkonium chloride [Control (benzalkonium chloride)],6
